pIC50: −log10 of the molar value. In brackets after ≈: the same amount, converted by molar mass. Like-named read-outs stand apart in the source and are kept apart here.
Experiments:
HepG2 cells = conditions: read-out: Amide -CONH- IC50; cited from earlier work
[1] = tested on: Mycobacterium tuberculosis H37Rv (Mtb); conditions: Šula's semisynthetic medium, pH = 5.6, turbidity, cited from earlier work; for Amides MIC: first value; for Amides MIC (value in parentheses): second value in parentheses
[2] = tested on: Candida albicans ATCC 44859; test: Antifungal microdilution broth, CA; format: cell-based; conditions: Candida albicans, read-out: MIC CA
Candida tropicalis 156 = test: Antifungal microdilution broth, CT; format: cell-based; conditions: read-out: MIC CT
[3] = tested on: M. kansasii CNCTC My 235/80 (ATCC 12478); test: Antimycobacterial microdilution MABA, M. kansasii; format: cell-based, Mycobacterium kansasii; conditions: Mycobacterium kansasii, ATCC12478, pH 6.6, read-out: M. kans. ATCC 12478 MIC, Middlebrook 7H9 with OADC, pH 6.6, MABA
[4] = Confirmatory prolonged HepG2 cytotoxicity, CellTox Green Cytotoxicity Assay; conditions: human, HepG2 cells
[5] = tested on: Pseudomonas aeruginosa CCM 1961; test: Antibacterial microdilution broth, PA; format: cell-based; conditions: Pseudomonas aeruginosa, read-out: MIC PA
[6] = tested on: Staphylococcus aureus H 5996/08 methicillin resistant; test: microbe, parasite or virus in culture; format: cell-based; conditions: for MIC: Staphylococcus aureus, MRSA, read-out: MIC MRSA
[7] = tested on: Escherichia coli CCM 4517; test: Antibacterial microdilution broth, EC; format: cell-based; conditions: Escherichia coli, read-out: MIC EC
[8] = tested on: Trichophyton interdigitale 445; test: Antifungal microdilution broth, TI; format: cell-based; conditions: read-out: MIC TI
[9] = tested on: Enterococcus sp. J 14365/08; test: Antibacterial microdilution broth, EF; format: cell-based; conditions: Enterococcus, read-out: MIC EF
[10] = tested on: Staphylococcus epidermidis H 6966/08; test: Antibacterial microdilution broth, SE; format: cell-based; conditions: read-out: MIC SE
[11] = tested on: Staphylococcus aureus CCM 4516/08; test: Antibacterial microdilution broth, SA; format: cell-based; conditions: Staphylococcus aureus
[12] = tested on: M. avium ssp. avium CNCTC My 80/72 (ATCC 15769); test: Antimycobacterial microdilution MABA, M. avium; format: cell-based, Mycobacterium avium; conditions: Mycobacterium avium, ATCC15769, pH 6.6, read-out: M. avium ATCC 15769 MIC
[13] = human, HepG2 cells
Trichosporon asahii 1188 = test: Antifungal microdilution broth, TA; format: cell-based; conditions: read-out: MIC TA
[14] = tested on: Mycobacterium smegmatis CCM 4622 (ATCC 607); test: Antimycobacterial microdilution, M. smegmatis; format: cell-based; conditions: Mycolicibacterium smegmatis, read-out: M. smeg. ATCC 607 MIC
Candida glabrata 20/I = test: Antifungal microdilution broth, CG; format: cell-based; conditions: Nakaseomyces glabratus, 20/I, read-out: MIC CG
[15] = tested on: Mycobacterium tuberculosis H37Rv CNCTC My 331/88 (ATCC 27294); test: Antimycobacterial microdilution MABA, M. tuberculosis; format: cell-based; conditions: Mycobacterium tuberculosis
[16] = tested on: Lichtheimia corymbifera 272; test: Antifungal microdilution broth, LC; format: cell-based; conditions: read-out: MIC LC
[17] = tested on: Aspergillus fumigatus 231; test: Antifungal microdilution broth, AF; format: cell-based; conditions: read-out: MIC AF
Candida krusei E28 = test: Antifungal microdilution broth, CK; format: cell-based; conditions: Pichia kudriavzevii, read-out: MIC CK

O=C(Nc1ccccc1O)c1cnc(Cl)cn1 [Amide R1=5-Cl R2=2-OH]
pIC50 (HepG2 cells): 4.52 | Amides MIC [1]: 3.13 µg/mL | Amides MIC (value in parentheses) [1]: 0.78 µg/mL

CCc1ccc(NC(=O)c2cnc(Cl)cn2)cc1 [Amide R1=5-Cl R2=4-Et]
pIC50 (HepG2 cells): 5.14 | Amides MIC [1]: 1.56 µg/mL | Amides MIC (value in parentheses) [1]: 0.78 µg/mL

O=C(Nc1cnc(Cl)cn1)c1ccccc1O [Compound 2b]
MIC ([2]; ATCC44859, 24 h): 62.5 µM (≈ 15.6 µg/mL) | MIC ([2]; ATCC44859, 48 h): 62.5 µM (≈ 15.6 µg/mL) | MIC (Candida tropicalis 156; Candida tropicalis, 156, 24 h): 125 µM (≈ 31.2 µg/mL) | MIC (Candida tropicalis 156; Candida tropicalis, 156, 48 h): 125 µM (≈ 31.2 µg/mL) | MIC [3]: 50 µg/mL (≈ 200 µM) | IC50 at 24 h [4]: 545 µM | IC50 at 48 h [4]: 188 µM | MIC ([5]; CCM1961, 72 h): > 500 µM | MIC ([5]; CCM1961, 120 h): > 500 µM | MIC MRSA ([6]; 24 h): 62.50 µM (≈ 15.6 µg/mL) | MIC MRSA ([6]; 48 h): 62.50 µM (≈ 15.6 µg/mL) | MIC ([6]; 24 h): 62.5 µM (≈ 15.6 µg/mL) | MIC ([6]; 48 h): 62.5 µM (≈ 15.6 µg/mL) | MIC ([7]; CCM4517, 24 h): > 500 µM | MIC ([7]; CCM4517, 48 h): > 500 µM | MIC ([8]; Trichophyton interdigitale, 445, 72 h): 125 µM (≈ 31.2 µg/mL) | MIC ([8]; Trichophyton interdigitale, 445, 120 h): 125 µM (≈ 31.2 µg/mL) | MIC ([9]; SP.J14365/08, 24 h): > 500 µM | MIC ([9]; SP.J14365/08, 48 h): > 500 µM | MIC ([10]; 24 h): 62.50 µM (≈ 15.6 µg/mL) | MIC ([10]; 48 h): 62.50 µM (≈ 15.6 µg/mL) | MIC ([10]; Staphylococcus epidermidis, H6966/08, 24 h): 62.5 µM (≈ 15.6 µg/mL) | MIC ([10]; Staphylococcus epidermidis, H6966/08, 48 h): 62.5 µM (≈ 15.6 µg/mL) | melting point: 197.7 to 198.2 °C | MIC ([11]; CCM4516, 24 h, read-out: MIC SA, 24 h): 15.6 µM (≈ 3.9 µg/mL) | MIC ([11]; CCM4516, 48 h, read-out: MIC SA, 48 h): 15.6 µM (≈ 3.9 µg/mL) | MIC [12]: 50 µg/mL (≈ 200 µM) | IC50 at 24 h [13]: 155 µM | MIC (Trichosporon asahii 1188; Trichosporon asahii, 1188, 24 h): 62.5 µM (≈ 15.6 µg/mL) | MIC (Trichosporon asahii 1188; Trichosporon asahii, 1188, 48 h): 125 µM (≈ 31.2 µg/mL) | MIC [14]: 15.6 µg/mL (≈ 62.6 µM) | MIC (Candida glabrata 20/I; 24 h): 125 µM (≈ 31.2 µg/mL) | MIC (Candida glabrata 20/I; 48 h): 125 µM (≈ 31.2 µg/mL) | MIC ([15]; read-out: Mtb H37Rv ATCC 27294 MIC, Middlebrook 7H9 with OADC growth supplement, pH = 6.6, MABA): 12.5 µg/mL | MIC ([15]; read-out: Mtb MIC, molar concentration): 50.1 µM | MIC ([16]; Lichtheimia corymbifera, 272, 24 h): 62.5 µM (≈ 15.6 µg/mL) | MIC ([16]; Lichtheimia corymbifera, 272, 48 h): 125 µM (≈ 31.2 µg/mL) | MIC ([17]; Aspergillus fumigatus, 231, 24 h): 125 µM (≈ 31.2 µg/mL) | MIC ([17]; Aspergillus fumigatus, 231, 48 h): 125 µM (≈ 31.2 µg/mL) | MIC (Candida krusei E28; E28, 24 h): 125 µM (≈ 31.2 µg/mL) | MIC (Candida krusei E28; E28, 48 h): 125 µM (≈ 31.2 µg/mL)

From paper PMC6225228, “Design, Synthesis and Evaluation of N-pyrazinylbenzamides as Potential Antimycobacterial Agents” (Molecules : A Journal of Synthetic Chemistry and Natural …, 2018)
